Test results published in PubChem BioAssay (NCI).
Values joined by “and” are separate entries in the source; they are usually repeats but may differ in a detail not shown here. Equal values may be shown once.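 How tested: cells in 96-well plates exposed to compound for 48 hours at five concentrations. GI50 = concentration required for 50% inhibition of growth. TGI marks complete inhibition of growth.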

Columns and labels:
Assay in all cases: inhibition of tumour cell growth, NCI panel, 48 h
EKVX NSCLC = system: EKVX NSCLC
SW-620 colon = system: SW-620 colon
HCT-116 colon = system: HCT-116 colon
DU-145 prostate = system: DU-145 prostate
HOP-62 NSCLC = system: HOP-62 NSCLC
OVCAR-4 ovarian = system: OVCAR-4 ovarian
SK-MEL-28 melanoma = system: SK-MEL-28 melanoma
OVCAR-8 ovarian = system: OVCAR-8 ovarian
ACHN renal = system: ACHN renal
CAKI-1 renal = system: CAKI-1 renal

SMILES | GI50 (EKVX NSCLC) | TGI (EKVX NSCLC) | GI50 (SW-620 colon) | TGI (SW-620 colon) | GI50 (HCT-116 colon) | TGI (HCT-116 colon) | GI50 (DU-145 prostate) [µM] | TGI (DU-145 prostate) [µM] | GI50 (HOP-62 NSCLC) | TGI (HOP-62 NSCLC) | GI50 (OVCAR-4 ovarian) | TGI (OVCAR-4 ovarian) | GI50 (SK-MEL-28 melanoma) | TGI (SK-MEL-28 melanoma) | GI50 (OVCAR-8 ovarian) | TGI (OVCAR-8 ovarian) | GI50 (ACHN renal) | TGI (ACHN renal) | GI50 (CAKI-1 renal) | TGI (CAKI-1 renal)
COc1ccc(COc2cc3oc(=O)c4cc(C(C)O)ccc4c3cc2OC)cc1 (stereo not drawn) | 19.7 µM | > 100 µM | > 22.4 µM | > 100 µM | 13.3 µM | > 100 µM | 45.5 | > 100 | 8.15 µM | 29.4 µM | 10.1 µM | 66.2 µM | 14.3 µM | > 91.7 µM | 14.8 µM | 52.2 µM | 23.1 µM | > 100 µM | 15.3 µM | > 51.1 µM
NC(=O)CC(N)c1nn[nH]n1 (stereo not drawn) | – | > 100 µM | – | > 100 µM | – | > 100 µM | – | > 100 | – | > 100 µM | – | > 100 µM | – | > 100 µM | – | > 100 µM | – | > 100 µM | – | > 100 µM
Nc1nc(C(=O)O)c(N=Nc2ccccc2)c(=O)[nH]1 | – | > 100 µM | – | > 100 µM | – | > 100 µM | – | > 100 | – | > 100 µM | – | > 100 µM | – | > 100 µM | – | > 100 µM | – | > 100 µM | – | > 100 µM
N#Cc1cccc(Nc2ncc(-c3ccccc3)o2)c1 | 11 µM | > 25 µM | 22.4 µM | > 25 µM | 9.02 µM | > 25 µM | 16 | > 25 | 6.69 µM | > 17.8 µM | 10.9 µM | > 25 µM | > 20.4 µM | > 25 µM | 16.7 µM | > 25 µM | 8.4 µM | > 25 µM | 8.44 µM | > 25 µM
Clc1nc(Cl)c2ncn(CCOCCn3cnc4c(Cl)nc(Cl)nc43)c2n1 | 1.31 µM | 2.77 µM | 0.212 µM | 0.44 µM | 0.182 µM | 0.346 µM | 0.196 | 0.343 | 0.202 µM | 0.36 µM | 0.283 µM | 0.707 µM | 0.199 µM | 0.362 µM | 0.228 µM | 0.486 µM | 0.328 µM | 0.811 µM | 0.197 µM | 0.453 µM
CC1=NNC(=S)NCCCN2CCN(CCCNC(=S)NN=C(C)C=NNC(=S)NCCCN3CCN(CCCNC(=S)NN=C1)CC3)CC2 | – | > 100 µM | – | > 100 µM | – | > 100 µM | – | > 100 | – | > 100 µM | – | > 100 µM | – | > 100 µM | – | > 100 µM | – | > 100 µM | – | > 100 µM
C[C@@H](NC(=O)c1ccc(F)cc1)c1ccc2c(c1)CCN2C(=O)C1CCOCC1 | > 100 µM | > 100 µM | > 100 µM | > 100 µM | > 100 µM | > 100 µM | > 100 | > 100 | > 100 µM | > 100 µM | > 100 µM | > 100 µM | > 100 µM | > 100 µM | > 100 µM | > 100 µM | > 100 µM | > 100 µM | > 100 µM | > 100 µM
COc1ccc(C2CC(c3ccc(N(C)C)cc3)=NN2c2ccc(S(N)(=O)=O)cc2)cc1 (stereo not drawn) | 3.79 µM | > 100 µM | 4.06 µM | > 100 µM | 2.12 µM | 4.77 µM | 4.84 | > 100 | 3.96 µM | > 100 µM | 3.19 µM | > 100 µM | 4.81 µM | 93.8 µM | 3.98 µM | > 100 µM | 3.37 µM | > 100 µM | 3.35 µM | > 100 µM
Cc1ccc(S(=O)(=O)NC(=O)OC23COCN2COC3)cc1 | – | > 100 µM | – | > 100 µM | – | > 100 µM | – | > 100 | – | > 100 µM | – | > 100 µM | – | > 100 µM | – | > 100 µM | – | > 100 µM | – | > 100 µM
N#Cc1c(NC(=O)c2ccccc2F)sc2c1CCCC2 | > 25 µM | > 25 µM | 8.77 µM | > 25 µM | > 25 µM | > 25 µM | > 25 | > 25 | > 25 µM | > 25 µM | > 25 µM | > 25 µM | > 25 µM | > 25 µM | > 25 µM | > 25 µM | > 25 µM | > 25 µM | > 19.4 µM | > 25 µM
COc1ccc(S(=O)(=O)N2CCNCC2)cc1OC | > 100 µM | > 100 µM | > 100 µM | > 100 µM | > 100 µM | > 100 µM | > 100 | > 100 | > 100 µM | > 100 µM | > 100 µM | > 100 µM | > 100 µM | > 100 µM | > 100 µM | > 100 µM | > 100 µM | > 100 µM | > 100 µM | > 100 µM
Cc1cc(O)c2c3c(ccc2c1)C(=O)c1c(O)cccc1C3=O | – | > 100 µM | – | > 100 µM | – | > 100 µM | – | > 100 | – | > 100 µM | – | 29.8 µM | – | > 100 µM | – | > 100 µM | – | > 100 µM | – | > 100 µM
O=C1C(Nc2cccc(O)c2)=C(Sc2ccccc2)C(=O)N1Cc1ccccc1 | 10.1 µM | 28.5 µM | 14.2 µM | 33.4 µM | 9.87 µM | 21.5 µM | 16.2 | 33.3 | 14.8 µM | 28.8 µM | 5.33 µM | 49.6 µM | 11.8 µM | 26.1 µM | 11.9 µM | 26.9 µM | 12.6 µM | 31.6 µM | 21.6 µM | 55.2 µM
COc1cc(C(=O)/C=C/c2c(C(F)(F)F)nc3ccccn23)cc(OC)c1OC | 2.37 µM | 6.78 µM | 1.68 µM | 4.24 µM | 1.26 µM | 3.21 µM | 1.61 | 3.51 | 2.97 µM | 8.53 µM | 4.1 µM | > 100 µM | 1.93 µM | 3.74 µM | 3.39 µM | > 100 µM | 1.95 µM | 3.79 µM | 1.82 µM | 4.44 µM
COc1c(OC(C)C)cc2cc(O)c(C(=O)NC3Cc4ccc(c(Cl)n4)O[C@@H]4C=C5C#C/C(=C\C#CC6OC56C4OC4CC(C)(O)C(O)C(C)O4)C(OC4CC(O)C(N(C)C)C(C)O4)COC3=O)cc2c1OC (stereo partly drawn) | > 36.3 µM and 37.5 µg/mL | > 36.3 µM and 37.5 µg/mL | 0.165 µg/mL | 37.5 µg/mL | 0.584 µg/mL | 15.7 µg/mL | – | > 36.3 | 10.3 µM and 0.402 µg/mL | > 36.3 µM and 1.74 µg/mL | > 36.3 µM and 30.8 µg/mL | > 36.3 µM and 37.5 µg/mL | 3.16 µg/mL | > 36.3 µM and 37.5 µg/mL | 26.7 µM and 1.18 µg/mL | > 36.3 µM and 37.5 µg/mL | 9.33 µM and 0.303 µg/mL | > 36.3 µM and 5.69 µg/mL | 0.897 µg/mL | > 36.3 µM and 37.5 µg/mL
COc1cc(-c2ncn(/C=C\c3nnco3)n2)cc(C(F)(F)F)c1 | 4.66 µM | > 100 µM | 0.0663 µM | 31.7 µM | 0.153 µM | 13.5 µM | 0.416 | > 100 | 0.403 µM | > 47 µM | 0.211 µM | > 72.4 µM | 0.125 µM | > 34.6 µM | 0.0813 µM | > 47 µM | 0.318 µM | > 100 µM | 0.154 µM | > 100 µM
COc1ccc(-c2[nH]c3ccccc3c2/C=C(\C#N)S(=O)(=O)c2ccccc2)cc1 | 1.25 µM | > 100 µM | 0.503 µM | > 100 µM | 0.391 µM | > 38 µM | 0.447 | – | 0.958 µM | > 35.3 µM | 0.559 µM | > 31.8 µM | 1.48 µM | > 71.9 µM | 1.29 µM | > 26.6 µM | 1.91 µM | > 100 µM | 0.975 µM | > 31.6 µM
